What was measured:
[1] = tested on: HEY; assay: Cytotoxicity against human HEY cell line at 20 uM by MTT assay; type: functional
[2] = tested on: MDA-MB-435; assay: Cytotoxicity against human MDA-MB-435 cell line by MTT assay; type: functional, cell-based
[3] = tested on: MCF7; assay: Cytotoxicity against human MCF7 cell line by MTT assay; type: functional, cell-based
[4] = tested on: HEY; assay: Cytotoxicity against human HEY cell line by MTT assay; type: functional, cell-based
[5] = target: Integrin alpha-V/beta-3 (Homo sapiens, UniProt P05106+P06756); assay: Inhibition of [125I]echistatin binding to integrin alphaVbeta3 receptor; type: protein-complex assay
[6] = tested on: MDA-MB-435; assay: Cytotoxicity against human MDA-MB-435 cell line at 20 uM by MTT assay; type: functional
[7] = tested on: MCF7; assay: Cytotoxicity against human MCF7 cell line at 20 uM by MTT assay; type: functional
[8] = tested on: NIH3T3; assay: Cytotoxicity against mouse NIH3T3 cell line by MTT assay; type: functional, cell-based
[9] = tested on: NCI-H1975; assay: Cytotoxicity against human NCI-H1975 cell line by MTT assay; type: functional, cell-based

Sequence of Integrin alpha-V/beta-3 (P05106 27-788 limits assumed): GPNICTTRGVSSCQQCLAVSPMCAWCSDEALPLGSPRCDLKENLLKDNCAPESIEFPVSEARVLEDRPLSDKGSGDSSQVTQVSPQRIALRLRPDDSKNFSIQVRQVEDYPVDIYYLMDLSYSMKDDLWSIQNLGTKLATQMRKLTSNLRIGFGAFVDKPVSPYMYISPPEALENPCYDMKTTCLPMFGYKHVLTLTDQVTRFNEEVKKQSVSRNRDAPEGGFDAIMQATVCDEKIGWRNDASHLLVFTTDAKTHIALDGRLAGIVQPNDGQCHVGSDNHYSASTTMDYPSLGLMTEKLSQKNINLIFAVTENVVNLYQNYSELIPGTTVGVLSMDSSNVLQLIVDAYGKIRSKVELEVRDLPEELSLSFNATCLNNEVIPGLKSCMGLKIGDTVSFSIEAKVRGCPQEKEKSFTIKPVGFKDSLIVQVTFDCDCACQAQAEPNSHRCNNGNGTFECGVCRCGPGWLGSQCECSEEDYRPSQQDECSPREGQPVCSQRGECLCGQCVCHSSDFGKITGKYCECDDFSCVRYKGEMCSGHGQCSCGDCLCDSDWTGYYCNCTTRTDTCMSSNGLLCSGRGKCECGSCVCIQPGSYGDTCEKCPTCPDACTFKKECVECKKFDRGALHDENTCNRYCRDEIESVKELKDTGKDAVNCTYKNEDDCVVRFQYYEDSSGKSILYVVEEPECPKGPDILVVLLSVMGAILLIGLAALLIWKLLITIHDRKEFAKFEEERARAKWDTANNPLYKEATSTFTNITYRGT
Sequence of Integrin alpha-V/beta-3 (P06756 31-889 limits assumed): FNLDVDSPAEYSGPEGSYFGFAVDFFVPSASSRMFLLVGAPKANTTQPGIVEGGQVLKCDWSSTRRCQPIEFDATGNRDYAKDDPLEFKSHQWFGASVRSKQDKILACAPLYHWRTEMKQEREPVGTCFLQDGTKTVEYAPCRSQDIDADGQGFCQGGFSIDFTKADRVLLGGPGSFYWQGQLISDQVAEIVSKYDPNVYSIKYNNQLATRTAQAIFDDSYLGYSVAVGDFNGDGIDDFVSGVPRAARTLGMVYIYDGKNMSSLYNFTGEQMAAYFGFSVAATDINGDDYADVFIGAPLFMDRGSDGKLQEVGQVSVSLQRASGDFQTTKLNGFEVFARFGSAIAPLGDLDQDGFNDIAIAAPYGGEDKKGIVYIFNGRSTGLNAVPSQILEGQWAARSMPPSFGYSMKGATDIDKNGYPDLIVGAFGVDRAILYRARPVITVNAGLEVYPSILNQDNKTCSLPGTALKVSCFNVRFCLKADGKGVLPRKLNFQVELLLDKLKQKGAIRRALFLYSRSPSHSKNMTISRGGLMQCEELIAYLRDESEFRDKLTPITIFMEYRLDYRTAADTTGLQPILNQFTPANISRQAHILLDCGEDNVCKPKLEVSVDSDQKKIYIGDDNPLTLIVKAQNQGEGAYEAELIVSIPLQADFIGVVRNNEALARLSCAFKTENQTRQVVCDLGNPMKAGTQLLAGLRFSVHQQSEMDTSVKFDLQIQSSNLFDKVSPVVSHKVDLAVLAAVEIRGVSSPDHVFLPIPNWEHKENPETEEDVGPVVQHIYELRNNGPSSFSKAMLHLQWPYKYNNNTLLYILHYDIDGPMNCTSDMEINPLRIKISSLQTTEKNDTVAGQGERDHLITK
Sequence of Integrin alpha-V/beta-3 (P06756 891-1048 limits assumed): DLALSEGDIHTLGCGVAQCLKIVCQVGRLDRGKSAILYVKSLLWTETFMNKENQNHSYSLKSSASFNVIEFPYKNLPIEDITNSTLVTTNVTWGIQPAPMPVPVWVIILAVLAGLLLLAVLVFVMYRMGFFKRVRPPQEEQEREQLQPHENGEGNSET

| Structure (SMILES) | inhibition at 20 µM [1] [%] | IC50 [2] [µM] | IC50 [3] [µM] | IC50 [4] [µM] | further results |
| --- | --- | --- | --- | --- | --- |
| Nc1nc(=O)c2cc(CSc3ccc(C(=O)NC(CCC(=O)O)C(=O)O)cc3)ccc2[nH]1 (configuration not stated) | 0 |  |  |  |  |
| Nc1nc(O)c2cc(COc3ccc(C(=O)NC(CCC(=O)O)C(=O)O)cc3)ccc2n1 (configuration not stated) | 6 |  |  |  |  |
| COc1cc(/C=N/Nc2nc(Nc3ccc(F)cc3)nc(N3CCCCC3)n2)ccc1OCC(=O)O | 0 |  |  |  |  |
| CCn1cc(C(=O)O)c(=O)c2cc(F)c(N3CCN(S(=O)(=O)c4ccc(NC(C)=O)cc4)CC3)cc21 | 0 |  |  |  |  |
| O=C(O)c1ccc(-c2ccc(/C=N/Nc3nc(Nc4ccccc4)nc(Nc4ccccc4)n3)o2)cc1 |  | 18 | > 20 | 21 |  |
| CC(=O)Nc1nc(O)c2nc(CCN(C)c3ccc(C(=O)O)cc3)cnc2n1 | 0 |  |  |  |  |
| Cc1ccnc(NS(=O)(=O)c2ccc(NC(=O)c3ccc(C(=O)O)cc3C(=O)O)cc2)n1 | 0 |  |  |  |  |
| CC1=NN(c2ccc(C(=O)O)cc2)C(=O)/C1=C/c1ccc(-c2ccc(S(N)(=O)=O)cc2)o1 | 6 | > 20 | 19 | > 20 |  |
| O=C(CCCCn1cnc2c(S)ncnc21)Nc1ccc(C(=O)O)c(O)c1 | 0 |  |  |  |  |
| CCOc1cc(/C=C2/S/C(=N\c3ccc(C(=O)O)cc3)N(C)C2=O)ccc1O | 51 | 0.34 | > 20 | 13 | IC50 [5]: 0.24 µM; inhibition at 20 µM [6]: 94%; inhibition at 20 µM [7]: 37%; IC50 [8]: > 20 µM; IC50 [9]: > 20 µM |
| CN(C)c1ccc(/C=C2\SC(=Nc3ccc(O)cc3)NC2=O)cc1 |  | 2.8 | > 20 | > 20 | IC50 [5]: > 1 µM |
| Cc1nnc(N/N=C/c2ccc(OCC(=O)O)cc2)nc1O | 0 |  |  |  |  |
| COc1cc(O)c(Cl)cc1/C=C1\S/C(=N/c2cccc(C(=O)O)c2)N(C)C1=O | 0 |  |  |  | inhibition at 20 µM [6]: 3%; inhibition at 20 µM [7]: 9% |
| CCOc1ccc(/N=C2/S/C(=C\c3ccc(N(C)C)cc3)C(=O)N2CC)cc1 |  | > 20 | > 20 | > 20 | IC50 [8]: > 20 µM; IC50 [9]: > 20 µM |
| Cc1ccc(NC(=O)CN2C(=O)N/C(=C\c3cccn3-c3cccc(C(=O)O)c3)C2=O)cc1 | 5 | > 20 | > 20 | > 20 | IC50 [8]: > 20 µM; IC50 [9]: > 20 µM |
| CCOc1cc(/C=N/Nc2nc(Nc3ccccc3)nc(N3CCCCC3)n2)ccc1OCC(=O)O | 0 |  |  |  |  |
| CC1=C(C#N)c2nc(N)c(C#N)c(C)c2/C1=C/c1ccc(-c2ccc(Cl)c(C(=O)O)c2)o1 | 14 |  |  |  |  |
| Nc1ccc(C(=O)Nc2nc3ccc(C(=O)O)cc3s2)cc1 | 0 |  |  |  |  |
| O=C(O)c1cccc(-c2ccc(/C=N/Nc3nc4nonc4nc3Nc3ccc(F)cc3)o2)c1 | 90 | 8 | 19 | 7 | IC50 [5]: > 1 µM; IC50 [8]: 13 µM; IC50 [9]: > 20 µM |
| CS(=O)(=O)Nc1ccc(C2=NN(C(=O)CCCC(=O)O)C(c3ccco3)C2)cc1 (configuration not stated) |  | > 20 | > 20 | > 20 | IC50 [8]: > 20 µM; IC50 [9]: > 20 µM |
| Nc1nc(O)c2nc3c(nc2n1)C(=O)N(c1ccc(C(=O)NC(CCC(=O)O)C(=O)O)cc1)C3 (configuration not stated) | 0 |  |  |  |  |
| O=C(CSc1nnn(-c2ccc(O)cc2)n1)NCc1cccc(C(=O)O)c1 | 0 |  |  |  | inhibition at 20 µM [6]: 9%; inhibition at 20 µM [7]: 34% |
| COc1cc(Cl)c(/C=C2\S/C(=N/c3cccc(C(=O)O)c3)N(C)C2=O)cc1OC | 0 | > 20 | > 20 | > 20 | IC50 [8]: > 20 µM; IC50 [9]: > 20 µM |
| CC1=NN(c2ccc(S(N)(=O)=O)cc2)C(=O)/C1=C\c1ccc(-c2ccccc2C(=O)O)o1 | 5 |  |  |  | inhibition at 20 µM [6]: 24%; inhibition at 20 µM [7]: 20% |
| O=C(O)COc1ccc(/C=N/NC(=O)c2ccc(O)cc2)cc1OCC(=O)O | 9 |  |  |  |  |
| COc1cc(/C=C2/NC(=O)N(CC(=O)Nc3ccc(C)cc3)C2=O)ccc1OCc1cccc(C(=O)O)c1 | 0 |  |  |  | inhibition at 20 µM [6]: 26%; inhibition at 20 µM [7]: 43% |
| CN(Cc1cnc2nc(N)nc(N)c2n1)c1ccc(C(=O)NC(CCCCN)C(=O)O)cc1 (configuration not stated) | 0 |  |  |  |  |
| COc1cc(OC)c(/C=C2\S/C(=N/c3ccc(C(=O)O)cc3)N(C)C2=O)cc1Br | 4 |  |  |  |  |
| Nc1nc(O)c2nc(CCCNc3ccc(C(=O)NC(CCC(=O)O)C(=O)O)cc3)cnc2n1 (configuration not stated) | 0 | > 20 | > 20 | > 20 | IC50 [8]: > 20 µM; IC50 [9]: > 20 µM |

— ChEMBL document CHEMBL1137431, “Discovery of small molecule integrin alphavbeta3 antagonists as novel anticancer agents” (J Med Chem, 2006)
